Results reported in US20210137961A1, “Compositions and Methods for Treating Dry Eye Diseases” (priority 2017, published 2021).

Tests used:
[1] = test system: phagocytized L. pneumophila; format: cell-based
[2] = speed of uptake and ultimate tissue concentration
[3] = Corneal permeability, Franz-Cell Diffusion Apparatus; format: in vitro ADME, bovine (calf)
Experimental: EXAMPLE. Corneal Permeability. Corneal permeability is determined using conventional protocols. Briefly, corneal permeability is determined on freshly excised bovine (calf) cornea using a Franz-Cell Diffusion Apparatus generally with n=3/group. Freshly excised calf cornea are stored until use in hydrating solution containing glutathione and buffer. The Apparatus includes a donor chamber on the top where a predetermined volume of the formulation is pipetted and a jacketed receptor cell with a sampling side arm. The joint between the donor and receptor cell is upward-convex, mimicking the shape of the cornea. The corneal membrane is placed on the ball joint with the cornea facing the donor chamber. The Apparatus is clamped to secure the cells with the donor and receptor chambers aligned. […] The volume is recorded. […] Test samples are added in rapid succession by depositing 200 μL of the formulation into each donor chamber using a calibrated pipet and the times recorded. […] Flux can be calculated by the formula: J=Q/(A·t), where Q is the quantity (micrograms) of compound traversing the membrane in time t (minutes), and A is the area of exposed membrane in cm^2. […] After completion of the diffusion, corneas are weighed to determine the quantity of bound test compound in the cornea, and the corneal thicknesses of each cornea is measured at the point of diffusion (the center) using Vernier calipers. […]

CC[C@H]1OC(=O)[C@@](C)(F)C(=O)[C@H](C)[C@@H](O[C@@H]2O[C@H](C)C[C@H](N(C)C)[C@H]2O)[C@](C)(OC)C[C@@H](C)C(=O)[C@H](C)[C@H]2N(CCCCn3cc(-c4cccc(N)c4)nn3)C(=O)O[C@]12C [Solithromycin, solithromycin]
potency relative to azithromycin [1]: 100 fold | tissue distribution relative to Azi [2]: 10 fold | time after administration at which compound is observed in receptor fluid ([3]; bovine cornea, Franz cell): ≤ 1 h | concentration in receptor fluid ([3]; within 1 h of administration): > 1000 ng/mL
